Literature values, collected in patent US20220362140A1, “Novel Dental Care and Cleansing Composition” (GROUP PHARMACEUTICALS, priority 2020, published 2022).

Conditions: much higher concentration

**Q.** Which “Concentration that is toxic” value does the source give for `O=BO[O-].[Na+]` [Sodium perboarate] here?
**A.** The value was 25%.
